Data published in ChEMBL document CHEMBL1201862, “PubChem BioAssay data set” (2004).
Calls of active or inactive are those of the source.

Assays:
[1] = biological target: T1, Acyl-homoserine lactone acylase PvdQ (Pseudomonas aeruginosa (strain LESB58), UniProt Q9I194); assay: PvdQ acylase enzyme activity blockers – biochemical, fluorescence, plate reader and imaging, cherry-picks, dose response (AID 493231)
T1 sequence (Q9I194 whole entry): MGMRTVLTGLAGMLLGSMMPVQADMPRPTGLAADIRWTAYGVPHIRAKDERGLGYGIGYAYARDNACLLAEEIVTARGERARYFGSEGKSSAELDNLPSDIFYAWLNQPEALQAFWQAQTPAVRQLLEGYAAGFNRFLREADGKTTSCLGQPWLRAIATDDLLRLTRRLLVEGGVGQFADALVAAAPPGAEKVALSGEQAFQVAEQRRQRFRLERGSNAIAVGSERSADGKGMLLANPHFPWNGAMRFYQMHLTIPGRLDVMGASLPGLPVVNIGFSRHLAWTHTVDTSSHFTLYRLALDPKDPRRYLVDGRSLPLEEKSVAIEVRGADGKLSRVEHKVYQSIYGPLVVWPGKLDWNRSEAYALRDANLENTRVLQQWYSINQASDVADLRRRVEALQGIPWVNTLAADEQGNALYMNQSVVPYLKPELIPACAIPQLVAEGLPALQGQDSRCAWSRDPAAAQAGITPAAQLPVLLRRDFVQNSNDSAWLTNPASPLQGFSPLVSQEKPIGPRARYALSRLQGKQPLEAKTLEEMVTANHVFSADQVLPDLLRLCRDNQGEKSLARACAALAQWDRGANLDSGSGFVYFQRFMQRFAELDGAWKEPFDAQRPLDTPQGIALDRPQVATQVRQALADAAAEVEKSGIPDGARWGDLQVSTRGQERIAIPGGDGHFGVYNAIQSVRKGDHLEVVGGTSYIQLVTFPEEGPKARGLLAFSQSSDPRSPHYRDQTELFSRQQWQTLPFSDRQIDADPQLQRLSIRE

HeLa = assay: toxicity to human HeLa cells – cell-based, 48 h, plate reader, cherry-picks, cytotoxicity control, dose response (AID 504942); assay type: functional
Escherichia coli = assay: microbe, parasite or virus in culture
Vero = assay: viability of Vero cells under compound – cytotoxicity control for flavivirus capping enzyme inhibitors (AID 588742); assay type: functional; conditions: Chlorocebus sabaeus
[2] = biological target: Induced myeloid leukemia cell differentiation protein Mcl-1 (Homo sapiens, UniProt Q07820); assay type: functional
Induced myeloid leukemia cell differentiation protein Mcl-1, sequence (Q07820 whole entry): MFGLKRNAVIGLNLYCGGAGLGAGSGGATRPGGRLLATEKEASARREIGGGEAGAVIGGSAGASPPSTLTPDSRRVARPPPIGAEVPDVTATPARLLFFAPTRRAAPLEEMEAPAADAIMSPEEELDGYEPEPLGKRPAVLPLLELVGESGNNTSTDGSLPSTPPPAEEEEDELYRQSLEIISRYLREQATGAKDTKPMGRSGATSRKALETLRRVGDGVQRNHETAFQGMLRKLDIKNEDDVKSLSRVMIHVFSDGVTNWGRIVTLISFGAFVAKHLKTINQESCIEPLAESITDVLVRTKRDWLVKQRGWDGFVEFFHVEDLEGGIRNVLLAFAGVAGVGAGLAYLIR

[3] = fluconazole-exposed Candida albicans growth modulators – fluorescence, retest, confirmation (AID 2467); assay type: functional, cell-based
[4] = biological target: Serine/threonine-protein phosphatase (Candida dubliniensis (strain CD36 / CBS 7987 / NCPF 3949 / NRRLY-17841) (Yeast), UniProt B9W6M3); assay: blockers of CaCl2-induced CDRE-lacZ signaling – S. cerevisiae, luminescence, secondary, dose response (AID 2388); assay type: functional, cell-based;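 also: yeast reporter cells carrying a calcineurin-responsive lacZ construct stimulated with calcium chloride; luminescent beta-galactosidase reporter signal in whole cells rather than isolated phosphatase activity; potency for inhibition where a drop in reporter signal means calcineurin blockade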
Serine/threonine-protein phosphatase, sequence (B9W6M3 whole entry): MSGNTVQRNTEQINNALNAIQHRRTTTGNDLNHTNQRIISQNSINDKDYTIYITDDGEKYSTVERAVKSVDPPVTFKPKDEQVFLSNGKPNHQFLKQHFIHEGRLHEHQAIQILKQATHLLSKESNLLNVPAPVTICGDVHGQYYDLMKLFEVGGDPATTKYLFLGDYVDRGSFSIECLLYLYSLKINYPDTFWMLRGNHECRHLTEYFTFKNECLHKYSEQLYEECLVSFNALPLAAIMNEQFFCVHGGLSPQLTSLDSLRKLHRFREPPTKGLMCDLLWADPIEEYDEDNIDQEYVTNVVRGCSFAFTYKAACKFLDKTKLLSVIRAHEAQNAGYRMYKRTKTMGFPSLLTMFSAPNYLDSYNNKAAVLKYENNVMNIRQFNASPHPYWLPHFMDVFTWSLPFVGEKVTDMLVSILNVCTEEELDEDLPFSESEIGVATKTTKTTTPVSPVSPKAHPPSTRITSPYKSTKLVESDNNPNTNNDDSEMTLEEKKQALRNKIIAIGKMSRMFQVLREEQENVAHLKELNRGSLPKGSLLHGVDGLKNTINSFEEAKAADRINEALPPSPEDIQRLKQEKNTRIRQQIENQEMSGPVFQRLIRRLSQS

[5] = biological target: ATP-dependent molecular chaperone HSP82 (Candida albicans (strain WO-1) (Yeast), UniProt C4YTQ8); assay: steroid-induced GRE reporter decrease in yeast – S. cerevisiae, luminescence, Hsp90 inhibitor project, dose response (AID 2400); assay type: functional, cell-based;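 also: beta-galactosidase luminescence from glucocorticoid response element reporter as proxy for Hsp90 function; inhibitor potency where signal loss means Hsp90 inhibition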
ATP-dependent molecular chaperone HSP82, sequence (C4YTQ8 whole entry): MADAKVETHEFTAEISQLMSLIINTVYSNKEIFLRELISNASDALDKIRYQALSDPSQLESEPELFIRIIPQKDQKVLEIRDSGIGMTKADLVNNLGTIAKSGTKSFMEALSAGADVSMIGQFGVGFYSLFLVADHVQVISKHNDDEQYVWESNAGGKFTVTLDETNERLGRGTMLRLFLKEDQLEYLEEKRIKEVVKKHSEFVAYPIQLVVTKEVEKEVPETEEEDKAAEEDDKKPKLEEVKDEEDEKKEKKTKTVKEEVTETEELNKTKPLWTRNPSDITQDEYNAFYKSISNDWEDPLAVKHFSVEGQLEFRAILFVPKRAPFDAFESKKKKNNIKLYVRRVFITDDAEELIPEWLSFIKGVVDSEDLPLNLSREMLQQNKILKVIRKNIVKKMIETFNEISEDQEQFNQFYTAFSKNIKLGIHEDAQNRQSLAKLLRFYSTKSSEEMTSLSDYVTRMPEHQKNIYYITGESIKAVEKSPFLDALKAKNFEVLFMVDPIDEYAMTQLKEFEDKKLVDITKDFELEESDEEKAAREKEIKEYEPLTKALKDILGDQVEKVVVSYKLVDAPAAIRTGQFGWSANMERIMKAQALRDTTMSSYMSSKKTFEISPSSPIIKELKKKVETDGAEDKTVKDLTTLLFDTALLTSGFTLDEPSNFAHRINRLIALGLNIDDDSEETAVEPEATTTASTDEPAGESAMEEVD

[6] = NIH-3T3 fibroblast cytotoxicity, dose response, cytotoxicity control, cell-based, fluorescence, Alamar Blue, secondary assay (AID 2327); assay type: functional;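 also: NIH-3T3 mouse fibroblasts cultured with fluconazole at 8 µg/mL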

COc1ccc(/C(C#N)=C/c2cccnc2)cc1
AC50 [1]: 9.73 µM (active)
AC50 (HeLa): 254 µM (active)

CC(C)(C)CC(=O)Nc1cccc(-c2cn3cccnc3n2)c1
AC50 (Escherichia coli): 45.2 µM (active)

CNc1ccc(Br)cc(C(=O)/C=C/c2ccc(OC)cc2OC)c1=O
CC50 (Vero): > 40 µM (active)
IC50 [2]: 2.17 µM (active)

CCOc1ccc(/C=C/C2=CC(C)(C)NC(S)=N2)cc1
EC50 [3]: 1.95 µM (active)
EC50 [4]: > 180 µM (inactive)
EC50 [5]: > 150 µM (inactive)
EC50 [6]: 17.1 µM (active)
